The text below walks through data of EP0411334B1, “Antiherpes pentapeptide derivatives having a substituted aspartic acid side chain” (BIO-MEGA/BOEHRINGER INGELHEIM RESEARCH INC., priority 1989, dated 1991).

Where a SMILES comes first, the peptide text is derived from it. [ ]: non-standard residue; d: D form. The star is where a group is joined. Dihydrocaffeoyl = O=C(CCc1ccc(O)c(O)c1)*; Benzoyl(2-Ph) = O=C(c1ccccc1-c1ccccc1)*; Desaminotyrosyl = O=C(CCc1ccc(O)cc1)*; Hydrocinnamoyl = O=C(CCc1ccccc1)*; N(Me)CH2CH2Ph = CN(CCc1ccccc1)*; Pentanoyl(4-Me) = CC(C)CCC(=O)*; O(2S-octyl) = CCCCCC[C@H](C)O*; NHPhenethyl = c1ccc(CCN*)cc1; NMeV = CN[C@H](C(=O)O)C(C)C; Morpholide = C1CN(*)CCO1; Pyrrolidide = C1CCN(*)C1; NiPr2 = CC(C)N(C(C)C)*; X1 = CCCCCC[C@@H](C)O*; X3 = c1ccc(CCCO*)cc1; X8 = CN(CCc1ccccn1)*; Bz = O=C(c1ccccc1)*; NHPh = c1ccc(N*)cc1; N(Me)OMe = CON(C)*; NEt2 = CCN(CC)*

This test addresses HSV-1 ribonucleotide reductase (Human herpesvirus 1, UniProt P08543). Nature of the test: biochemical.

HSV-1 ribonucleotide reductase, sequence (P08543 whole entry): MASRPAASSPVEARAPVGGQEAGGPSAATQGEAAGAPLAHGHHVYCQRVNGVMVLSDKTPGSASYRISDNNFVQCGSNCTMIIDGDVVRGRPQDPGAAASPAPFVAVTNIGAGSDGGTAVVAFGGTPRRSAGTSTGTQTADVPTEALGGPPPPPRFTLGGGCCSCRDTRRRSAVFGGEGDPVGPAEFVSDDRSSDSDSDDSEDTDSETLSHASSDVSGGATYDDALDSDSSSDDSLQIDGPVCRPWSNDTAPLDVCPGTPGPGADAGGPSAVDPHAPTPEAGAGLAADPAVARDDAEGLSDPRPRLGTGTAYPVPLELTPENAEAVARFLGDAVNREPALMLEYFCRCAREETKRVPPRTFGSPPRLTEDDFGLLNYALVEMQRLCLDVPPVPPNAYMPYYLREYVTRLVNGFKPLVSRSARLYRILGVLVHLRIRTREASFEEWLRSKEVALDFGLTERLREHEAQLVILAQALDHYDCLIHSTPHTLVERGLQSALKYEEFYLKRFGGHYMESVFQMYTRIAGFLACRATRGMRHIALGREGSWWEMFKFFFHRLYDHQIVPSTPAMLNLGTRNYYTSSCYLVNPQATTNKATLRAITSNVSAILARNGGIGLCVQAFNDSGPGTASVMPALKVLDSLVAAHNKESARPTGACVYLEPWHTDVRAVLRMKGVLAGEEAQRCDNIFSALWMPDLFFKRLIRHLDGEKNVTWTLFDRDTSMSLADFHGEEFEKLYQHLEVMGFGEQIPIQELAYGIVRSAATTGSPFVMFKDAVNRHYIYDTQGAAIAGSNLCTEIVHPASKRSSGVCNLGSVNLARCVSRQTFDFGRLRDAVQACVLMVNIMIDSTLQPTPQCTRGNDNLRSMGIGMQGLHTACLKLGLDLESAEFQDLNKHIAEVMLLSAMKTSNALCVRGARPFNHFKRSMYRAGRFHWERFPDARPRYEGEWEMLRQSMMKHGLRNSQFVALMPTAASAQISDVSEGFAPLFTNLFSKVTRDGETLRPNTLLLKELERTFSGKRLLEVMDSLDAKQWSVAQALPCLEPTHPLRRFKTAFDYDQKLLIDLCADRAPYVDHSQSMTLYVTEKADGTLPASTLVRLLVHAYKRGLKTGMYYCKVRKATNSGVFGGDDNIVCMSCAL
Text: Inhibition of Herpes Simplex Virus (HSV, type 1) Ribonucleotide Reductase
• a) Preparation of Enzyme HSV-1 ribonucleotide reductase (partially purified) was obtained from quiescent BHK-21/C13 cells infected with strain F HSV-1 virus at 10 plaque forming units/cell as described by E.A. Cohen et al., J. Gen. […] The number of units of the enzyme preparation used in each assay was constant, based on the specific activity of the enzyme preparation.

Compound `CC[C@H](C)[C@H](NC(=O)[C@@H](NC(=O)CCc1ccc(O)cc1)C(C)C)C(=O)N[C@@H](CC(=O)NCCc1ccccc1)C(=O)N[C@@H](CC(=O)O)C(=O)N[C@@H](CC(C)C)C(=O)O` [Entry 17] (Desaminotyrosyl-VID(NHPhenethyl)DL-OH) showed an IC50 of 1700 nM.

For the compound `CC[C@H](C)[C@H](NC(=O)[C@H](C(C)C)N(C)C(=O)CCc1ccc(O)cc1)C(=O)N[C@@H](CC(=O)Nc1ccccc1)C(=O)N[C@@H](CC(=O)O)C(=O)N[C@@H](CC(C)C)C(=O)O` [Entry 10] (Desaminotyrosyl-[NMeV]ID(NHPh)DL-OH), it took 1600 nM to reach half-maximal inhibition (IC50).

`CCNC(=O)C[C@H](NC(=O)[C@@H](NC(=O)[C@@H](NC(=O)CCc1ccc(O)cc1)C(C)C)[C@@H](C)CC)C(=O)N[C@@H](CC(=O)O)C(=O)N[C@@H](CC(C)C)C(=O)O` [Entry 18] (Desaminotyrosyl-VID(NHEt)DL-OH) returned an IC50 of 1750 nM.

`CCCCCC[C@H](C)OC(=O)C[C@H](NC(=O)[C@@H](NC(=O)[C@H](C(C)C)N(C)C(=O)CCc1ccccc1)[C@@H](C)CC)C(=O)N[C@@H](CC(=O)O)C(=O)N[C@@H](CC(C)C)C(=O)O` [Entry 1] (Hydrocinnamoyl-[NMeV]ID(O(2S-octyl))DL-OH) registered an IC50 of 700 nM.

`CC[C@H](C)[C@H](NC(=O)[C@@H](NC(=O)c1ccccc1)C(C)C)C(=O)N[C@@H](CC(=O)NCCc1ccccc1)C(=O)N[C@@H](CC(=O)O)C(=O)N[C@@H](CC(C)C)C(=O)O` [Entry 22, Benzoyl-Val-Ile-Asp-(NHCH₂CH₂Ph)-Asp-Leu-OH] (Bz-VID(NHPhenethyl)DL-OH) displayed a concentration for half-maximal inhibition (IC50) of 7600 nM.

Consider `CC[C@H](C)[C@H](NC(=O)[C@@H](NC(C)=O)C(C)C)C(=O)N[C@@H](CC(=O)NCCc1ccccc1)C(=O)N[C@@H](CC(=O)O)C(=O)N[C@@H](CC(C)C)C(=O)O` [Entry 23, Ac-Val-Ile-Asp(NHCH₂CH₂Ph)-Asp-Leu-OH] (Ac-VID(NHPhenethyl)DL-OH), for which the IC50 was found to be 18000 nM.

The compound `CC[C@H](C)[C@H](NC(=O)[C@H](C(C)C)N(C)C(=O)CCc1ccc(O)cc1)C(=O)N[C@@H](CC(=O)N1CCOCC1)C(=O)N[C@@H](CC(=O)O)C(=O)N[C@@H](CC(C)C)C(=O)O` [Entry 16] (Desaminotyrosyl-[NMeV]ID(Morpholide)DL-OH) displayed an IC50 of 370 nM.

`CC[C@H](C)[C@H](NC(=O)[C@H](C(C)C)N(C)C(=O)CCc1ccc(O)cc1)C(=O)N[C@@H](CC(=O)NCCc1ccccc1)C(=O)N[C@@H](CC(=O)O)C(=O)N[C@@H](CC(C)C)C(=O)O` [Entry 11] (Desaminotyrosyl-[NMeV]ID(NHPhenethyl)DL-OH) showed an IC50 of 510 nM.

`CC[C@H](C)[C@H](NC(=O)[C@H](C(C)C)N(C)C(=O)CCc1ccc(O)cc1)C(=O)N[C@@H](CC(=O)N(C)CCc1ccccn1)C(=O)N[C@@H](CC(=O)O)C(=O)N[C@@H](CC(C)C)C(=O)O` [Entry 15] (Desaminotyrosyl-[NMeV]ID(X8)DL-OH) yielded a concentration for half-maximal inhibition (IC50) of 290 nM.

`CC[C@H](C)[C@H](NC(=O)[C@H](C(C)C)N(C)C(=O)CCc1ccccc1)C(=O)N[C@@H](CC(=O)N(CC)CC)C(=O)N[C@@H](CC(=O)O)C(=O)N[C@@H](CC(C)C)C(=O)O` [Entry 4] (Hydrocinnamoyl-[NMeV]ID(NEt2)DL-OH) returned an IC50 of 260 nM.

Take `CC[C@H](C)[C@H](NC(=O)[C@H](C(C)C)N(C)C(=O)CCc1ccccc1)C(=O)N[C@@H](CC(=O)N(C)OC)C(=O)N[C@@H](CC(=O)O)C(=O)N[C@@H](CC(C)C)C(=O)O` [Entry 8] (Hydrocinnamoyl-[NMeV]ID(N(Me)OMe)DL-OH): the IC50 stood at 190 nM.

Turning to `CC[C@H](C)[C@H](NC(=O)[C@H](C(C)C)N(C)C(=O)CCc1ccc(O)cc1)C(=O)N[C@@H](CC(=O)N(CC)CC)C(=O)N[C@@H](CC(=O)O)C(=O)N[C@@H](CC(C)C)C(=O)O` [Entry 13, DAT-N-Me-Val-Ile-Asp(NEt₂)-Asp-Leu-OH] (Desaminotyrosyl-[NMeV]ID(NEt2)DL-OH), the midpoint of inhibition, the IC50, lay at 270 nM.

Consider `CC[C@H](C)[C@H](NC(=O)[C@@H](NC(=O)CCc1ccc(O)cc1)C(C)C)C(=O)N[C@@H](CC(=O)N(CC)CC)C(=O)N[C@@H](CC(=O)O)C(=O)N[C@@H](CC(C)C)C(=O)O` [Entry 19] (Desaminotyrosyl-VID(NEt2)DL-OH), for which inhibition was half-maximal at 560 nM (IC50).

Take `CC[C@H](C)[C@H](NC(=O)[C@@H](NC(=O)CCc1ccc(O)cc1)C(C)C)C(=O)N[C@@H](CC(=O)N(C)CCc1ccccc1)C(=O)N[C@@H](CC(=O)O)C(=O)N[C@@H](CC(C)C)C(=O)O` [Entry 20] (Desaminotyrosyl-VID(N(Me)CH2CH2Ph)DL-OH): half-maximal inhibition (IC50) required 550 nM.

Compound `CC[C@H](C)[C@H](NC(=O)[C@H](C(C)C)N(C)C(=O)CCc1ccc(O)c(O)c1)C(=O)N[C@@H](CC(=O)N1CCCC1)C(=O)N[C@@H](CC(=O)O)C(=O)N[C@@H](CC(C)C)C(=O)O` [Entry 28, (3,4-Dihydroxy-Ph)-CH₂CH₂CO-N-Me-Val-Ile-Asp(pyrrolidino)-Asp-Leu-OH] (Dihydrocaffeoyl-[NMeV]ID(Pyrrolidide)DL-OH) came in with an IC50 of 250 nM.

For the compound `CC[C@H](C)[C@H](NC(=O)[C@H](C(C)C)N(C)C(=O)CCc1ccc(O)cc1)C(=O)N[C@@H](CC(=O)N(C)CCc1ccccc1)C(=O)N[C@@H](CC(=O)O)C(=O)N[C@@H](CC(C)C)C(=O)O` [Entry 14] (Desaminotyrosyl-[NMeV]ID(N(Me)CH2CH2Ph)DL-OH), inhibition was half-maximal at 380 nM (IC50).

The compound `CC[C@H](C)[C@H](NC(=O)[C@H](C(C)C)N(C)C(=O)CCc1ccccc1)C(=O)N[C@@H](CC(=O)N1CCCC1)C(=O)N[C@@H](CC(=O)O)C(=O)N[C@@H](CC(C)C)C(=O)O` [Entry 6] (Hydrocinnamoyl-[NMeV]ID(Pyrrolidide)DL-OH) registered an IC50 of 110 nM.

As for `CC[C@H](C)[C@H](NC(=O)[C@H](C(C)C)N(C)C(=O)CCc1ccc(O)cc1)C(=O)N[C@@H](CC(=O)N(C)C)C(=O)N[C@@H](CC(=O)O)C(=O)N[C@@H](CC(C)C)C(=O)O` [Entry 12] (Desaminotyrosyl-[NMeV]ID(NMe2)DL-OH), the IC50 was determined as 90 nM.

`CC[C@H](C)[C@H](NC(=O)[C@H](C(C)C)N(C)C(=O)CCc1ccccc1)C(=O)N[C@@H](CC(=O)N(C)C)C(=O)N[C@@H](CC(=O)O)C(=O)N[C@@H](CC(C)C)C(=O)O` [Entry 3] (Hydrocinnamoyl-[NMeV]ID(NMe2)DL-OH) came in with an IC50 of 190 nM.

`CC[C@H](C)[C@H](NC(=O)[C@H](C(C)C)N(C)C(=O)CCc1ccccc1)C(=O)N[C@@H](CC(=O)N(C(C)C)C(C)C)C(=O)N[C@@H](CC(=O)O)C(=O)N[C@@H](CC(C)C)C(=O)O` [Entry 5] (Hydrocinnamoyl-[NMeV]ID(NiPr2)DL-OH) returned an IC50 of 250 nM.

The compound `CC[C@H](C)[C@H](NC(=O)[C@H](C(C)C)N(C)C(=O)CCc1ccccc1)C(=O)N[C@@H](CC(=O)N1CCOCC1)C(=O)N[C@@H](CC(=O)O)C(=O)N[C@@H](CC(C)C)C(=O)N(CC)CC` [Entry 27, PhCH₂CH₂CO-N-Me-Val-Ile-Asp(morpholino)-Asp-Leu-NEt₂] (Hydrocinnamoyl-[NMeV]ID(Morpholide)DL-NEt2) showed an IC50 of 2600 nM.

Regarding `CC[C@H](C)[C@H](NC(=O)[C@@H](NC(=O)c1ccccc1-c1ccccc1)C(C)C)C(=O)N[C@@H](CC(=O)NCCc1ccccc1)C(=O)N[C@@H](CC(=O)O)C(=O)N[C@@H](CC(C)C)C(=O)O` [Entry 21, 2-Biphenylylcarbonyl-Val-Ile-Asp-(NHCH₂CH₂Ph)-Asp-Leu-OH] ({Benzoyl(2-Ph)}-VID(NHPhenethyl)DL-OH), the IC50 was 1250 nM.

`CC[C@H](C)[C@H](NC(=O)[C@H](C(C)C)N(C)C(=O)CCc1ccccc1)C(=O)N[C@@H](CC(=O)N1CCOCC1)C(=O)N[C@@H](CC(=O)O)C(=O)N[C@@H](CC(C)C)C(=O)O` [Entry 7] (Hydrocinnamoyl-[NMeV]ID(Morpholide)DL-OH) yielded an IC50 of 180 nM.

With `CC[C@H](C)[C@H](NC(=O)[C@H](C(C)C)N(C)C(=O)CCC(C)C)C(=O)N[C@@H](CC(=O)N(CC)CC)C(=O)N[C@@H](CC(=O)O)C(=O)N[C@@H](CC(C)C)C(=O)O` [Entry 25, 4-Methylpentanoyl-N-Me-Val-Ile-Asp(NEt₂)-Asp-Leu-OH] ({Pentanoyl(4-Me)}-[NMeV]ID(NEt2)DL-OH), it took 500 nM to reach half-maximal inhibition (IC50).

Take `CCN(CC)C(=O)C[C@H](NC(=O)[C@@H](NC(=O)[C@H](C(C)C)N(C)C(=O)CCc1ccccc1)[C@@H](C)O)C(=O)N[C@@H](CC(=O)O)C(=O)N[C@@H](CC(C)C)C(=O)O` [Entry 26, PhCH₂CH₂CO-N-Me-Val-Thr-Asp(NEt₂)-Asp-Leu-OH] (Hydrocinnamoyl-[NMeV]TD(NEt2)DL-OH): the IC50 was found to be 300 nM.

In turn, `CC[C@H](C)[C@H](NC(=O)[C@H](C(C)C)N(C)C(=O)CCc1ccc(O)cc1)C(=O)N[C@@H](CC(=O)OCCCc1ccccc1)C(=O)N[C@@H](CC(=O)O)C(=O)N[C@@H](CC(C)C)C(=O)O` [Entry 9] (Desaminotyrosyl-[NMeV]ID(X3)DL-OH) displayed an IC50 of 650 nM.

On to `CCCCCC[C@@H](C)OC(=O)C[C@H](NC(=O)[C@@H](NC(=O)[C@H](C(C)C)N(C)C(=O)CCc1ccccc1)[C@@H](C)CC)C(=O)N[C@@H](CC(=O)O)C(=O)N[C@@H](CC(C)C)C(=O)O` [Entry 2] (Hydrocinnamoyl-[NMeV]ID(X1)DL-OH), for which half-maximal inhibition (IC50) required 700 nM.
